Like-named read-outs stand apart in the source and are kept apart here.
How the values were obtained:
[1] = tested on: Gastric cancer cells NCI-N87; test: High-throughput screening (HTS) cytotoxicity, ATPlite assay; type: cell-based; parameters: AUC (area under the curve): unit not given beside the values; conditions: NCI-N87 (HER+), 384-well, 72 hours; for IC50: Homo sapiens
Experimental: (§1) The present inventors used an HTS system capable of screening various drugs or substances at once to further screen cytotoxicity of DS-26 (Example 1) and DS-28 (Comparative Example 1). Gastric cancer cells NCI-N87 and ovarian cancer cells SK-OV-3 were separately seeded in a 384-well and treated with drugs at various concentrations and cultured for 72 hours. Then, the degree of cell growth was measured by ATPlite assay. The measured data were converted into IC50 using GraphPad Prism 5.0 software, and area under the curve (AUC) was converted to analyze the titer of each drug.
(§2) Also, DS-26 has stable solubility and stability in terms of chemical structure and thus considered worthy to be developed into drugs.

[2] = tested on: ovarian cancer cells SK-OV-3; test: as above; type: cell-based; parameters: AUC (area under the curve): unit not given beside the values; conditions: for IC50: Homo sapiens
Experimental: as §1, §2

[3] = SK-OV-3 (HER+), 384-well, 72 hours, ATPlite, read-out: IC50
[4] = SK-OV-3 (HER+), 384-well, 72 hours, ATPlite

Row | Structure (SMILES) | IC50 [1] | AUC (area under the curve) [1] | IC50 [2, 3] | IC50 ([2]; text summary of Table 1 and FIGS. 2A-3B, cell line not specified (NCI-N87 and SK-OV-3 tested), read-out: IC50 (text summary of HTS result)) | AUC (area under the curve) [2, 4]
1 | COc1ccc2c(O)cc3c(c2c1)[C@H](CCl)CN3C(=O)c1cc2cc(NC(=O)CCN(C)C)ccc2[se]1 [DS-26, (S)—N-(2-(1-(chloromethyl)-5-hydroxy-8-methoxy-2,3-dihydro-1H-benzo[e]indole-3-carbonyl)benzo[b]selenophen-5-yl)-3-(dimethylamino)propanamide] | 0.00555 nM | 477 | 0.042 nM | 0.04 to 0.05 nM | 481
2 | COCCOCCOCCOCCOc1cc2[se]c(C(=O)N3C[C@@H](CCl)c4c3cc(O)c3ccc(OC)cc43)cc2cc1NC(C)=O [DS-28, reference compound] | 5.86 nM | 689 | 1.68 nM | – | 613
